Patent US9878007B2, “Syndecan peptides and polypeptides as inhibitors of vascular endothelial growth factor receptor-2 (VEGFR2) and very late antigen-4 (VLA-4)” (Wisconsin Alumni Research Foundation, priority 2015, dated 2018)
No end group written: not given here.

Legend:
[1] = system: HMEC-1 cells; assay: Attachment and spreading of HMEC-1 cells on IIICS; format: cell-based; details: plated on IIICS; 30 μM peptides, 125 μg/ml SST0001, 10 μg/ml MMP9 blocking antibody
Procedure: FIGS. 8A-H. HPSE mediated the Sdc1-coupled VEGFR2 complex in endothelial cells induces angiogenesis. (FIG. 8A) Lysates from HPSE^low, HPSE^high and HMEC-1 cells are probed by immunoblotting for expression of HPSE. (FIG. 8B) HMEC-1 cells were seeded at equal density and grown in serum-free media for 24 hr in the absence or presence of 125 μg/ml of the HPSE inhibitor SST0001. After 24 hr, conditioned media were harvested, and the level of shed Sdc1 in the conditioned medium from each condition was determined by immunoblotting. (FIG. 8C) HMEC-1 cell lysate was incubated overnight with glutathione beads coated with GST or GST-S1ED. Capture of VLA-4 or VEGFR2 was detected by immunoblotting. (FIG. 8D) HMEC-1 cells were plated on IIICS for 3 hr and double stained for VLA-4 and Sdc1, VEGFR2 and Sdc1, or VLA-4 and VEGFR2. (FIG. 8E) HMEC-1 cells were treated with DMSO, VLA-4 blocking antibody P1H4, β1-integrin blocking antibody mAb13, 10 μg/ml MMP9 blocking antibody, 125 μg/ml HPSE inhibitor SST0001, Vandetanib, VEGFR2 blocking antibody, 30 μM S1ED^210-233 or 30 μM S1ED^214-240 and then plated on IIICS. Images were taken from random field with 200× magnification for counting attached and spread cells. (FIG. 8F) HMEC-1 cells were plated on IIICS in the presence of 10 μM of S1ED^210-236, S1ED^210-233, S1ED^215-240, and S1ED^214-240. […]

[2] = target: T1, VLA-4 (Homo sapiens, UniProt P05556+P13612); assay: GST pull down assay: capture of VLA-4 by GST-S1ED; format: binding; details: HPSE^low cell lysates; peptide 30 M [sic]
T1 construct: the α4-integrin (VLA-4), which is expressed on myeloma cells; endogenous in cells; host or cells: CAG human myeloma cells (HPSE^low), whole-cell lysate
Procedure: FIGS. 6A-G. Peptides derived from the active site in Sdc1 activate or inhibit adhesion and invasion. (FIG. 6A) Transwell migration assays towards FN (for 16 hrs) were performed for HPSE low or high cells in the presence of 0, 0.3, 3, and 30 μM of S1ED^210-240. Cells migrating to the bottom side of the filter were counted from five random images for each treatment. (FIG. 6B) The sequence of S1ED210-240 is shown (SEQ ID NO: 3), as well as […] truncation mutants of the peptide (SEQ ID NOs: 5, 2, 4 and 7). Amino acids shown in red appear necessary for the spreading and invasive activity. (FIG. 6C) Images of HPSE^low and HPSE^high cells plated on FN for 2 hr. (FIG. 6D) HPSE^low cells were treated with 0, 0.3, 3, 10 and 30 μM of S1ED^210-236, S1ED^210-233, or S1ED^214-240, plated on FN for 2 hr, fixed and stained with fluorescent phalloidin. Cells from five random images were quantified for cell attachment and cell spreading. (FIG. 6E) HPSE^high cells were treated with 0, 3, 10, and 30 μM of S1ED^210-236, S1ED^210-233, and S1ED^214-240, plated on FN for 2 hr, then fixed, imaged and quantified as in FIG. 6D. (FIG. 6F) Transwell migration assays towards FN (for 16 hr) were performed for HPSE^low or HPSE^high cells in the presence of 30 μM of S1ED^210-236, S1ED^210-233, S1ED^214-240 and Vandetanib. (FIG. 6G) HPSE^low cell lysates were incubated overnight with glutathione beads coated with GST or GST-S1ED in the absence or presence of 30 μM of S1ED^210-236, S1ED^210-233, and S1ED^214-240. Capture of VLA-4 or VEGFR2 was detected by immunoblotting. Sequences in FIG. 6B are 210-240 (SEQ ID NO: 3), 210-236 (SEQ ID NO: 2), 210-233 (SEQ ID NO: 4), 214-240 (SEQ ID NO: 5) and 214-236 (SEQ ID NO: 7).
CAG cells were washed with CMF-PBS and then lysed for 20 min on ice in lysis buffer. Cell debris was removed by centrifugation at 13000 rpm for 20 min at 4° C. Whole cell lysates were then incubated at 4° C. overnight with either 3 μM GST or 3 μM GST-S1ED in the absence or presence of 1 μM, 3 μM, and 10 μM S1ED^210-240 peptide. GST or GST-S1ED was captured by addition of glutathione Sepharose and the beads were washed with ice-cold lysis buffer and CMF-PBS, prior to addition of SDS-PAGE sample buffer and analyszed by electrophoresis and western blotting as described previously.

T1 sequence (P13612 34-1032): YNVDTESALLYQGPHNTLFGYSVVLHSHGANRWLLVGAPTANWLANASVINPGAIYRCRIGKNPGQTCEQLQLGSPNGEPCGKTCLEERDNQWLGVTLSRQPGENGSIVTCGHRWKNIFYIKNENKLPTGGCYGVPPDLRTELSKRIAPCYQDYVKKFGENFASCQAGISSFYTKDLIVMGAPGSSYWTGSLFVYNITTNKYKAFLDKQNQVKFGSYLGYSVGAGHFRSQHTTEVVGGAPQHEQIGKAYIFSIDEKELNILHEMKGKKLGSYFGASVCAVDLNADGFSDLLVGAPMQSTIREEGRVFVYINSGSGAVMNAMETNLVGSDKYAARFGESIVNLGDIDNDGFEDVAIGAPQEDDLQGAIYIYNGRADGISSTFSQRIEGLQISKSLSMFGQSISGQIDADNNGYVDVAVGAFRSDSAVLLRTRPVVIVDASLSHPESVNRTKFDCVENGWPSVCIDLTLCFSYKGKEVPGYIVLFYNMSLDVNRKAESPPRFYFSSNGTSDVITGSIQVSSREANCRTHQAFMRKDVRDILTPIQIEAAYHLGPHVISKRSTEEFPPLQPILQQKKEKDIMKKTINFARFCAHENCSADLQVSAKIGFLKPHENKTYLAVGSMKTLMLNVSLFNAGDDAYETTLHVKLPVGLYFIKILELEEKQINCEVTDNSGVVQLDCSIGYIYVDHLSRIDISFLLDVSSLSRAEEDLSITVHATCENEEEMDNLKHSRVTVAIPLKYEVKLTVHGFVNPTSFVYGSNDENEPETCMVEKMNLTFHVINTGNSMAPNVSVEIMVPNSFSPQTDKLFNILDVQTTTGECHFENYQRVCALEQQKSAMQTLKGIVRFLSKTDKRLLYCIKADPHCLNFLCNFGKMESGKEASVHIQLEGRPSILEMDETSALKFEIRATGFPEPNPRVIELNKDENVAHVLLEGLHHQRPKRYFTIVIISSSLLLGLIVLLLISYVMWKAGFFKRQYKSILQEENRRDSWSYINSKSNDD
T1 sequence (P05556 21-798): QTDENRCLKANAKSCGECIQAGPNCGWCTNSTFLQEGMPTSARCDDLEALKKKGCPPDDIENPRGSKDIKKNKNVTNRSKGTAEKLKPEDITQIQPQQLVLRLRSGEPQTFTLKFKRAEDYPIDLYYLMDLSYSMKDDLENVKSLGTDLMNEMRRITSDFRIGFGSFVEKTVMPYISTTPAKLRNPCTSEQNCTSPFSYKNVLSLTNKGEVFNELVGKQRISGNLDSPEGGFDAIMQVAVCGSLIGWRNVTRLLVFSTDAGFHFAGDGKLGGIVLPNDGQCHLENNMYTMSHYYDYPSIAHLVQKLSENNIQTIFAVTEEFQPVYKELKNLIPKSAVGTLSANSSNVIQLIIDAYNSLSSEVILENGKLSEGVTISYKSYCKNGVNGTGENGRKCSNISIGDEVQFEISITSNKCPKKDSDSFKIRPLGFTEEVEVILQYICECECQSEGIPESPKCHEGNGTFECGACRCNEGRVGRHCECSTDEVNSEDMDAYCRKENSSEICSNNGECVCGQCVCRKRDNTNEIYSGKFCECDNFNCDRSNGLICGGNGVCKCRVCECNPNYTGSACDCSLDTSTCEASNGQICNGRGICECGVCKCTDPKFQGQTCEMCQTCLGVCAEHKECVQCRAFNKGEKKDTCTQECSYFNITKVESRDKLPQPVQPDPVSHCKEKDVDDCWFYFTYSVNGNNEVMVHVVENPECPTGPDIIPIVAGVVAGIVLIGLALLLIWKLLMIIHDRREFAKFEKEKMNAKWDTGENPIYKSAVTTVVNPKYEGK

Row | Substance | VLA-4 dependent spreading of HMEC-1 cells [1] | competition for capture of VLA-4 by GST-S1ED [2]
1 | S1ED^210-233: syndecan-1 ectodomain peptide, residues 210-233 (SEQ ID NO: 4) (DFTFETSGENTAVVAVEPDRRNQS) | prevented | –
2 | DFTFETSGENTAVVAVEPDRRNQSPVD [S1ED^210-236] | – | effectively blocks capture of both receptors
